Structures can show the parent of a compound that is named as a salt.

Experiment [1] concerns the target T1, IRE1α (Homo sapiens, UniProt O75460). Description: In vitro FRET assay (XBP1 RNA probe cleavage by IRE1α). The format is biochemical. Also noted: purchased SignalChem. The note with it: SignalChem IRE1α protein 2 nM. Here is the method: In vitro FRET assay was performed to evaluate the ability of select compounds to inhibit IRE1, the results of which are summarized in Table 5. To perform the in vitro FRET assay, 1× complete assay buffer (CAB; […], 50 mM sodium citrate pH 7.15, 1 mM magnesium acetate, 0.02% tween 20) was used to dilute SignalChem IRE1α protein to a final concentration of 2 nM. Selected compounds were serially diluted with DMSO in a non-binding black 384-well plate for a total of 15 ul in each well. 2 ul of the serially diluted compound or DMSO control were then added to new wells containing 98 ul of 1×CAB, for a total volume of 100 ul, 10 ul of which were then transferred to wells of a new plate. 5 ul of the diluted IRE1α was then added to each well. 5 ul of a […] XBP1 RNA probe was then added to each well. Fluorescence was then read over 30 minutes in kinetic mode (485/515 nm).
Two RNA probes were used, XBP1 wildtype (SEQ ID NO: 2) which is able to be spliced by active IRE1α or XBP1 mutant (SEQ ID NO: 3) which is unable to be spliced. Each probe contained a 5′ 6-FAM modification and a 3′ IOWA Black FQ modification.
A second FRET assay was performed to assess ATP-mediated inhibition. In this case, compounds and IRE1α were prepared and combined as discussed above, with the addition of ATP up to 1 mM final concentration. This mixture was incubated at room temperature for 60 minutes and then 5 ul of 400 nM XBP1 wildtype or mutant RNA probe was added. Plates were then read over 30 minutes in kinetic mode (485/515 nm).
Target sequence in this assay (O75460 468-977 limits assumed): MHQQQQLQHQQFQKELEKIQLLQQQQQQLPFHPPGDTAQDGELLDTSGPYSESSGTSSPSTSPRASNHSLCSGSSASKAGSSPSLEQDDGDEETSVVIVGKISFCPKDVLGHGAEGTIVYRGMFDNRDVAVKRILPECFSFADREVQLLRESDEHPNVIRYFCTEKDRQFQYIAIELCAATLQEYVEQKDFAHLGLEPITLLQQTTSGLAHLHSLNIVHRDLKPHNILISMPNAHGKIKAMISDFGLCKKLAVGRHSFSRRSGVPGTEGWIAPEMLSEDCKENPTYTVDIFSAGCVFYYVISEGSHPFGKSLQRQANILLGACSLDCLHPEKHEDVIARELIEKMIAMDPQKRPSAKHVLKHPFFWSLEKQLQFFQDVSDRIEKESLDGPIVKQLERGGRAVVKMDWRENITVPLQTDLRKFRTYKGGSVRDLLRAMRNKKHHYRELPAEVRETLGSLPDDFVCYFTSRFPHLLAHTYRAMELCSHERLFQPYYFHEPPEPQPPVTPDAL

Experiment [2] has as its target T1, IRE1α. Description: IRE1α Endoribonuclease Nanoluciferase Assay (XBP1 luciferase reporter, 293T cells). The format is cell-based. On the set-up: endogenous in cells; host or cells: 293T cells. The note with it: 293T cells transfected with XBP1 luciferase reporter plasmid, stressors +/- inhibitors. As to the method:
Compounds disclosed herein were assessed for disruption of IRE-1 signaling using a IRE1α Endoribonuclease Nanoluciferase Assay. Briefly, 2.5×10^6 293T cells were seeded in a 10 cm^2 tissue culture plate. About 24 hours later, the cells were transfected with Effectene. In a 15 mL Tube, the following was added: 2 μg XBP1 luciferase reporter plasmid (PGK-Luc2-P2A-XBP1u-Nanoluciferase-PEST); 300 μl EC buffer; and 16 μl Enhancer, followed by incubation at room temp for 5 minutes. Next, 60 μl Effectene (Qiagen 301427) was added, followed by incubation at room temperature for 10 minutes. 2.6 mL cDMEM media was added. Old media was aspirated from the cells, followed by addition of 7 mL fresh media. Full transfection mixture was added dropwise to cells. Cells were incubated for 6 hours, followed by tripsinization, centrifugation and resuspension in 11 mL media. 100 uL of cells were plated per a well in a 96 well plate. A day later, stressors of choice +/− inhibitors were added. To harvest, media was aspirated from cells completely, then 50 uL 1× passive lysis buffer (Promega: E1941) was added per well and put on shaker (300 rpm) for 30 minutes at room temperature. Cells were centrifuged, and 15 uL sample per well was added to a new, opaque white 384 well plate (Corning 3570). 15 uL OneGlo (nanoluciferase kit, Promega N1630) was added. Plates were spun down, placed on shaker (300 rpm) for 10 minutes. Plates were read on luminometer, 1000 ms integration time per well. 15 uL Stop and Glo (nanoluciferase kit) was added. Plates were spun down, placed on shaker (300 rpm) for 10 minutes. Plates were read on luminometer, 1000 ms second integration time per well. Recordings are provided below in Table 6.
Target sequence in this assay (O75460 19-977): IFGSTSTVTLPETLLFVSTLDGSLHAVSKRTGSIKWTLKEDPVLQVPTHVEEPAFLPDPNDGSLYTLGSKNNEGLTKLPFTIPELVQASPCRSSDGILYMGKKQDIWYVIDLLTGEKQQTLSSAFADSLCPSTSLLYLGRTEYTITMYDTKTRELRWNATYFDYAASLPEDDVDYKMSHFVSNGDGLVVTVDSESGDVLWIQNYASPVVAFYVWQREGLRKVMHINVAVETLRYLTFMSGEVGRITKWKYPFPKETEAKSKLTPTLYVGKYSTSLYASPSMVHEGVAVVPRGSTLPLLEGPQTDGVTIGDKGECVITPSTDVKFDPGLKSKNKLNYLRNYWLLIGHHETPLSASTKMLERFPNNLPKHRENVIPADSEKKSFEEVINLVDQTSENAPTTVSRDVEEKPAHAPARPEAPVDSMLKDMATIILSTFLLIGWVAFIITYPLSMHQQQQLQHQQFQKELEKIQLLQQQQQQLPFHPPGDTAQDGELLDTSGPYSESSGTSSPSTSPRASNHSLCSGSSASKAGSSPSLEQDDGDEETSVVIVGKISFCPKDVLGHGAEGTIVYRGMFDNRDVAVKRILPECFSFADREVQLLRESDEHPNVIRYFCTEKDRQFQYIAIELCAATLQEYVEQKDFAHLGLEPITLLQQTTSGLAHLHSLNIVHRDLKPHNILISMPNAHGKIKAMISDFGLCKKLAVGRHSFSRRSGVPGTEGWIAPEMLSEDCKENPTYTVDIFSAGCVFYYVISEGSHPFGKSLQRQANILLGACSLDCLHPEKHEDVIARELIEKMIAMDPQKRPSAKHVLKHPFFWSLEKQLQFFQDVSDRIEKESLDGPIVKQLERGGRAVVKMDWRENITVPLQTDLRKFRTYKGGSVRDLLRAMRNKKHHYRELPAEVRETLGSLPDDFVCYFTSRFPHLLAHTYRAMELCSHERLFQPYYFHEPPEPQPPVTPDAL

The EC50 is the midpoint of the concentration-response curve. Lower therefore signals a more potent agent. With `CN1CCN(Cc2ccc(NC(=O)Nc3cc(-c4ccc5nc(NC6CCNCC6)ncc5c4)n(C)n3)cc2C(F)(F)F)CC1` [2; TFA], the figures for the EC50 on IRE1α [1] and at IRE1α [2] were at most 5 nM and over 100 nM, respectively.

Molecule `CN1CCN(Cc2ccc(NC(=O)Nc3cc(-c4ccc5cc(NC6CCCCC6)ncc5c4)n(C)n3)cc2C(F)(F)F)CC1` [4; TFA] displayed an EC50 at IRE1α [1] of over 100 nM.

Take `CN1CCN(Cc2ccc(NC(=O)Nc3cc(-c4ccc5nc(NC6CCCCC6)ncc5c4)n(C)n3)cc2C(F)(F)F)CC1` [Compound 5, 1-(5-(2-(cyclohexylamino)quinazolin-6-yl)-1-methyl-1H-pyrazol-3-yl)-3-(4-((4-methylpiperazin-1-yl)methyl)-3-(trifluoromethyl)phenyl)urea]: the 50% effective concentration (EC50) at IRE1α [1] and at IRE1α [2] was over 100 nM in each case.

With `Cc1cc(-c2cc(NC(=O)Nc3ccc(CN4CCN(C)CC4)c(C(F)(F)F)c3)nn2C)cc2cnc(N)nc12` [Compound 12, 1-(5-(2-amino-8-methylquinazolin-6-yl)-1-methyl-1H-pyrazol-3-yl)-3-(4-((4-methylpiperazin-1-yl)methyl)-3-(trifluoromethyl)phenyl)urea], the EC50 on IRE1α [1] was 5 to 50 nM; at IRE1α [2], over 100 nM.

As to `CCc1cc(-c2cc(NC(=O)Nc3ccc(CN4CCN(C)CC4)c(C(F)(F)F)c3)nn2C)cc2cnc(N[C@H]3CC[C@H](N)CC3)nc12` [Compound 31, 1-(5-(2-(((1r,4r)-4-aminocyclohexyl)amino)-8-ethylquinazolin-6-yl)-1-methyl-1H-pyrazol-3-yl)-3-(4-((4-methylpiperazin-1-yl)methyl)-3-(trifluoromethyl)phenyl)urea], the 50% effective concentration (EC50) at IRE1α [1] and on IRE1α [2] was at most 5 nM in each case.

These data come from patent US10934275B2, “IRE1 small molecule inhibitors” (Cornell University, priority 2016, dated 2021).
